Drawing on PubChem BioAssay AID266 (DTP/NCI, 2004), this text covers T/C for 18 molecules.

Values joined by “and” are separate entries in the source; they are usually repeats but may differ in a detail not shown here. Equal values may be shown once. Records with an inconclusive call do not appear.

For the assay, the system named is Nude mice, LX-1 lung xenograft intrarenal, tumor weight T/C. The experiment in a line: NCI In Vivo Anticancer Drug Screen. Data for tumor model Human Lung LX-1 Xenograft (intrarenal inoculation) in NU/NU BALB/C (nude) mice. Conditions: endpoint: mean tumor weight change, higher = larger tumour. How it is done:
The antitumor activity of compounds was measured in mice bearing transplantable tumors. Survival or tumor size were measured and the results are expressed as the measurement made in the treated group (T) divided by the measurement made in the vehicle treated control group (C). The tumor model used in this assay is Human Lung LX-1 Xenograft (intrarenal inoculation) in NU/NU BALB/C (nude) mice

[1] abbreviates: dose: 300.0 mg/kg/injection, schedule: Q04DX003 (sc), vehicle: saline with Tween-80.
Setting [2] is: dose: 600.0 mg/kg/injection, schedule: Q04DX003 (sc), vehicle: saline with Tween-80.
Where [3] appears, read: dose: 1200.0 mg/kg/injection, schedule: Q04DX003 (sc), vehicle: saline with Tween-80.
The mark [4] stands for this setting: dose: 2400.0 mg/kg/injection, schedule: Q04DX003 (sc), vehicle: saline with Tween-80.
Where [5] appears, read: dose: 1.25 mg/kg/injection, schedule: Q04DX003 (sc), vehicle: saline.

In the case of `COC1=C(OC)C(=O)C(C/C=C(\C)CC/C=C(\C)CC/C=C(\C)CC/C=C(\C)CC/C=C(\C)CC/C=C(\C)CC/C=C(\C)CC/C=C(\C)CC/C=C(\C)CCC=C(C)C)=C(C)C1=O`, the T/C reads like this: (dose: 50.0 mg/kg/injection, schedule: Q01DX010 (sc), vehicle: saline with Tween-80) 91 % of control; (dose: 100.0 mg/kg/injection, schedule: Q01DX010 (sc), vehicle: saline with Tween-80) 90 % of control; (dose: 200.0 mg/kg/injection, schedule: Q01DX010 (sc), vehicle: saline with Tween-80) 102 % of control; (dose: 400.0 mg/kg/injection, schedule: Q01DX010 (sc), vehicle: saline with Tween-80) 104 % of control.

Turning to `CCC1=C[C@H]2CN(CCc3c([nH]c4ccccc34)[C@@](C(=O)OC)(c3cc4c(cc3OC)N(C)[C@H]3[C@@](O)(C(=O)NC)[C@H](OC(C)=O)[C@]5(CC)C=CCN6CC[C@]43[C@@H]65)C2)C1`, the T/C (dose: 1.0 mg/kg/injection, schedule: Q04DX003 (sc), vehicle: water) was 30 % of control.

Turning to `CN(Cc1cnc2nc(N)nc(N)c2n1)c1ccc(C(=O)N[C@@H](CCC(=O)O)C(=O)O)cc1`, the T/C (dose: 1.0 mg/kg/injection, schedule: Q01DX010 (sc), vehicle: sodium bicarbonate) was 72 % of control and 84 % of control; the T/C (dose: 4.0 mg/kg/injection, schedule: Q01DX010 (sc), vehicle: sodium bicarbonate) was 47 % of control.

On to `O=C(c1cccnc1)c1cc(-c2ccccn2)c(=O)n2ccccc12`, for which the T/C by setting is: under setting [1], 95 % of control; under setting [2], 74 % of control; under setting [3], 92 % of control; under setting [4], 74 % of control.

`Cc1ccc(S(=O)(=O)NC(=O)OC23COCN2COC3)cc1`: the T/C runs as follows: (dose: 200.0 mg/kg/injection, schedule: Q04DX003 (sc), vehicle: saline with Tween-80) 118 % of control; (dose: 400.0 mg/kg/injection, schedule: Q04DX003 (sc), vehicle: saline with Tween-80) 121 % of control; (dose: 800.0 mg/kg/injection, schedule: Q04DX003 (sc), vehicle: saline with Tween-80) 153 % of control; (dose: 1600.0 mg/kg/injection, schedule: Q04DX003 (sc), vehicle: saline with Tween-80) 112 % of control.

On to `O=C(CCCN1CCC(C(O)c2ccc(F)cc2)CC1)c1ccc(F)cc1` (configuration not stated), for which the T/C was 64 % of control (dose: 12.5 mg/kg/injection, schedule: Q04DX003 (ip), vehicle: saline with Tween-80); 68 % of control (dose: 25.0 mg/kg/injection, schedule: Q04DX003 (ip), vehicle: saline with Tween-80); 69 % of control (dose: 50.0 mg/kg/injection, schedule: Q04DX003 (ip), vehicle: saline with Tween-80).

Regarding `Cc1cnc(/C=N\NC(N)=S)c2cccc(N)c12`, the T/C runs as follows: (dose: 31.75 mg/kg/injection, schedule: Q04DX003 (ip), vehicle: saline with Tween-80) 74 % of control; (dose: 62.5 mg/kg/injection, schedule: Q04DX003 (ip), vehicle: saline with Tween-80) 89 % of control; (dose: 125.0 mg/kg/injection, schedule: Q04DX003 (ip), vehicle: saline with Tween-80) 49 % of control.

On to `C/C=C(\C)c1cc(=O)c2c(C)cc3c(c2o1)C(=O)c1c(O)c(C2CC(C)(N(C)C)C(OC(C)=O)C(C)O2)cc(C2CC(N(C)C)C(O)C(C)O2)c1C3=O` (configuration not stated), for which the T/C reads like this: (dose: 0.63 mg/kg/injection, schedule: Q04DX003 (sc), vehicle: saline) 68 % of control; under setting [5], 48 % of control; (dose: 2.5 mg/kg/injection, schedule: Q04DX003 (sc), vehicle: saline) 45 % of control; (dose: 5.0 mg/kg/injection, schedule: Q04DX003 (sc), vehicle: saline) 51 % of control.

As to `Cn1c(=O)[nH]c2nncnc2c1=O`, the T/C (dose: 62.5 mg/kg/injection, schedule: Q04DX003 (sc), vehicle: water) was 110 % of control.

As to `CC(=O)NC(Cc1ccc(F)cc1)C(=O)O` (configuration not stated), the T/C is 112 % of control under setting [1], 71 % of control under setting [2], 91 % of control under setting [3] and 107 % of control under setting [4].

With `COC(=O)c1ccc(N=NN(C)COC(C)=O)cc1`, the T/C runs as follows: (dose: 155.52 mg/kg/injection, schedule: Q04DX003 (ip), vehicle: Klucel (hydroxypropylcellulose) (HPC)) 78 % of control; (dose: 259.2 mg/kg/injection, schedule: Q04DX003 (ip), vehicle: Klucel (hydroxypropylcellulose) (HPC)) 47 % of control; (dose: 432.0 mg/kg/injection, schedule: Q04DX003 (ip), vehicle: Klucel (hydroxypropylcellulose) (HPC)) 60 % of control; (dose: 720.0 mg/kg/injection, schedule: Q04DX003 (ip), vehicle: Klucel (hydroxypropylcellulose) (HPC)) 64 % of control.

For the molecule `Nc1ccn([C@@H](C=O)O[C@@H](C=O)CO)c(=O)n1`, the T/C (dose: 200.0 mg/kg/injection, schedule: Q04DX003 (sc), vehicle: saline) is 108 % of control.

For `c1cc(OCC2CO2)ccc1OCC1CO1` (configuration not stated), the T/C is 172 % of control under setting [1], 118 % of control under setting [2], 114 % of control under setting [3] and 88 % of control under setting [4].

Consider `CNC(=O)O/N=C(\CN=[N+]=[N-])C(C)(C)C`, for which the T/C under setting [5] was 73 % of control.

As for `CC(C)C(N)C(=O)Nc1nncs1` (configuration not stated), the T/C (dose: 150.0 mg/kg/injection, schedule: Q04DX003 (sc), vehicle: saline) is 102 % of control; the T/C (dose: 300.0 mg/kg/injection, schedule: Q04DX003 (sc), vehicle: saline) was 74 % of control; the T/C (dose: 600.0 mg/kg/injection, schedule: Q04DX003 (sc), vehicle: saline) was 78 % of control.

Consider `O=S(=O)(N=N/C=C1\C=CC=CN1O)c1cccs1`, for which the T/C by setting is: (dose: 37.5 mg/kg/injection, schedule: Q04DX003 (sc), vehicle: saline with Tween-80) 121 % of control; (dose: 75.0 mg/kg/injection, schedule: Q04DX003 (sc), vehicle: saline with Tween-80) 82 % of control; (dose: 150.0 mg/kg/injection, schedule: Q04DX003 (sc), vehicle: saline with Tween-80) 103 % of control.

With `C=C(C)C(=O)O[C@H]1CC2=C[C@@H](C[C@@]3(C)O[C@@H]3[C@H]3OC(=O)C(=C)[C@@H]31)OC2=O`, the T/C reads like this: (dose: 75.0 mg/kg/injection, schedule: Q04DX003 (sc), vehicle: Klucel (hydroxypropylcellulose) (HPC)) 64 % of control; (dose: 150.0 mg/kg/injection, schedule: Q04DX003 (sc), vehicle: Klucel (hydroxypropylcellulose) (HPC)) 91 % of control; (dose: 300.0 mg/kg/injection, schedule: Q04DX003 (sc), vehicle: Klucel (hydroxypropylcellulose) (HPC)) 58 % of control.

For the molecule `COC1=C(OC)C(=O)C(SC/C=C(\C)CCCC(C)CCCC(C)CCCC(C)C)=CC1=O` (configuration not stated), the T/C (dose: 300.0 mg/kg/injection, schedule: Q04DX003 (ip), vehicle: saline with Tween-80) is 82 % of control; the T/C (dose: 600.0 mg/kg/injection, schedule: Q04DX003 (ip), vehicle: saline with Tween-80) was 110 % of control; the T/C (dose: 1200.0 mg/kg/injection, schedule: Q04DX003 (ip), vehicle: saline with Tween-80) was 72 % of control.
